The target of data set [1] is human dopamine transporter (Homo sapiens (Human), UniProt Q01959). Description: Human DAT (dopamine transporter) uptake assay. Type of data set: cell-based. Conditions: read-out: hDAT Ki. The procedure: This protocol was designed to measure inhibition of uptake by the human dopamine transporter. […] The Assay Buffer (AB) was 1×HBSS and 0.02 M HEPES.
(§1) The HEK293F cells were transfected with the human dopamine transporter and frozen in 1 mL aliquots at about 1E+07 cells/mL. On the day of the experiment, the cells were removed from −80° C. or liquid nitrogen and thawed in a room temperature water bath. The cells were dilute to about 1-2E+06 with Freestyle medium. A 1 mL sample (1:2 dilution) was prepared, and the cells were counted. The cells were spun at 1100 rpm for 5 minutes, and the medium was aspirated off. The cells were resuspend in medium at 1.5E+06 cells/mL for about 60,000 cells per well. 40 μL of cells were dispensed per well in the Biocoat plates. The plates were spun at 1100 rpm for 1 minute to improve homogeneity of the cell layer and were incubated at 37° C. for a minimum of 3 hours.
12 μL of test compound (10 mM) in DMSO was added to the wells, and nomifensine was used as a control. […] The neurotransmitter transporter dye was prepared in AB prior to use.
Due to the proprietary nature of the dye formulation, all dye concentrations were expressed as a percentage of the vendor-recommended dye reconstitution. Thus, the above calculations were valid when both [dye] and K1 were expressed in the same units (%). Compounds were tested in triplicate (n=3).

The next data set concerns the target CYP2D6 (Homo sapiens (Human), UniProt P10635). Description: Cytochrome P450 inhibition assay, recombinant CYP2D6 (MAMC substrate). Type of data set: in vitro ADME. The following applies: recombinant enzyme.
A short description of data set [2]: pKa of basic centres (Table 1). Type of data set: physicochemical.
Data set [3] deals with human serotonin transporter (Homo sapiens (Human), UniProt P31645). Description: Human SERT (serotonin transporter) uptake assay. In kind it is cell-based. The following applies: read-out: hSERT Ki. The procedure:
This protocol was designed to measure inhibition of uptake by the human serotonin transporter. […] The Assay Buffer (AB) was […] and 0.02 M HEPES.
as §1, with “serotonin” for “dopamine”
12 μL of test compound (10 mM) in DMSO was added to the wells, and nomifensine was used as a control. Fluoxetine (final assay concentration of 10 μM) was used for background signal. The neurotransmitter transporter dye was prepared in AB prior to use.
Due to the proprietary nature of the dye formulation, all dye concentrations were expressed as a percentage of the vendor-recommended dye reconstitution. Thus, the above calculations were valid when both [dye] and Km were expressed in the same units (%). Compounds were tested in triplicate (n=3).

The target in another data set is CYP3A4 (Homo sapiens (Human), UniProt P08684). Description: Cytochrome P450 inhibition assay, recombinant CYP3A4 (BFC substrate). In kind it is in vitro ADME. Conditions: recombinant enzyme.
Chain of CYP3A4 (P08684 whole entry): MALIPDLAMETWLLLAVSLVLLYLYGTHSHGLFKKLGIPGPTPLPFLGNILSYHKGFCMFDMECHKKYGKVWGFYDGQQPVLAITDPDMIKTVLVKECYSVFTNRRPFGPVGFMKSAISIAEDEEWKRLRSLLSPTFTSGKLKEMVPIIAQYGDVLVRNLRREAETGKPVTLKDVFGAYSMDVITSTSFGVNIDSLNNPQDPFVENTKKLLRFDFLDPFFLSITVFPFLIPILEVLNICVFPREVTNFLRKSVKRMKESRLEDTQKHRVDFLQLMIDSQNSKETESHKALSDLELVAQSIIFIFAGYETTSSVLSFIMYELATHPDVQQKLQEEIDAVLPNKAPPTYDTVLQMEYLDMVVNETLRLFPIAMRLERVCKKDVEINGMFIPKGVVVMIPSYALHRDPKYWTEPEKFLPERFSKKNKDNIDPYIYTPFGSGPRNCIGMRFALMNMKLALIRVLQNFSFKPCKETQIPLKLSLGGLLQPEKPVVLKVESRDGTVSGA
For data set [4], the target named is human norepinephrine transporter (Homo sapiens (Human), UniProt P23975). Nature of the data set: Human NET (norepinephrine transporter) uptake assay. In kind it is cell-based. Conditions: read-out: hNET Ki. The gist of the method:
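HEK293F cells transfected with human NET were thawed, plated at about 60,000 cells/well and held at 37 °C for at least 3 h. Compounds came from 10 mM DMSO stocks, with nomifensine as control, in 1×HBSS/0.02 M HEPES. Uptake was followed with a neurotransmitter transporter dye, dosed as % of vendor reconstitution, in triplicate.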

Setting [5] is: first base, e.g., an aliphatic primary, secondary, or tertiary amine, read-out: pKa (Base 1).
Where [6] appears, read: second base in the same molecule (if present), read-out: pKa (Base 2).

Read-outs that look alike come from different tables or passages of the source.

Chain of human norepinephrine transporter (P23975 whole entry): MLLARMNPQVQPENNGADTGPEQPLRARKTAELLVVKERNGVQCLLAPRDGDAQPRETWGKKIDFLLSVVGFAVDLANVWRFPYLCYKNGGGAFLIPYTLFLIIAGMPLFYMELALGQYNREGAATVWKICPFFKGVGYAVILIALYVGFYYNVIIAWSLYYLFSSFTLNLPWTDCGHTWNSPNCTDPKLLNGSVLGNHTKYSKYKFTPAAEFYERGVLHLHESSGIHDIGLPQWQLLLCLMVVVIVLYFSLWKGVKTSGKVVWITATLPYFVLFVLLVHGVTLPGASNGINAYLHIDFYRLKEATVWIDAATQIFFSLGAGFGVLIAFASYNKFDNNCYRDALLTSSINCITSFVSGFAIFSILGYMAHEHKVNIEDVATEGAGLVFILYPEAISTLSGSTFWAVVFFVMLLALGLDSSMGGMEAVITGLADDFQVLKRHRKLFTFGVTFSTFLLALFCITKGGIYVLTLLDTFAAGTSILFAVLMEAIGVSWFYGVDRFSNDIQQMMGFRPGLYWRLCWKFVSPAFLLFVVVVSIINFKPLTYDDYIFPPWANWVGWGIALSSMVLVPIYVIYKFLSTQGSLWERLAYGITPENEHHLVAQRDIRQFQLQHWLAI
Chain of human serotonin transporter (P31645 whole entry): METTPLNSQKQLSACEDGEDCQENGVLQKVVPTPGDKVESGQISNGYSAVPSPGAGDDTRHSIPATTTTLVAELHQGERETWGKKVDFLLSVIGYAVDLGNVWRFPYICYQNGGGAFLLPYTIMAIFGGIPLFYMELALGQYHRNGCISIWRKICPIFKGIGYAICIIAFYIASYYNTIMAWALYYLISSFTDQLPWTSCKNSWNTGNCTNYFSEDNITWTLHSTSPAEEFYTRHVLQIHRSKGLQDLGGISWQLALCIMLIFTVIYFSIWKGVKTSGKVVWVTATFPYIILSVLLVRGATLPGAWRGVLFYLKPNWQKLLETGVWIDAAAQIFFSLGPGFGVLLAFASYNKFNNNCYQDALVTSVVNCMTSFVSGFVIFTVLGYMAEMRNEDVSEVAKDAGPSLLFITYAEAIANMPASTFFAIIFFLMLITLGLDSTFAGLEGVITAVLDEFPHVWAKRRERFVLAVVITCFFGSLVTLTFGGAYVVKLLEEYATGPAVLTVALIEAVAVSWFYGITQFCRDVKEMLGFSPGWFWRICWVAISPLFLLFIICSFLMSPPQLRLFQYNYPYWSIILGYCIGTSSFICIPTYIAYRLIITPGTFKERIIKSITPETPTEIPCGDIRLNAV
Chain of human dopamine transporter (Q01959 whole entry): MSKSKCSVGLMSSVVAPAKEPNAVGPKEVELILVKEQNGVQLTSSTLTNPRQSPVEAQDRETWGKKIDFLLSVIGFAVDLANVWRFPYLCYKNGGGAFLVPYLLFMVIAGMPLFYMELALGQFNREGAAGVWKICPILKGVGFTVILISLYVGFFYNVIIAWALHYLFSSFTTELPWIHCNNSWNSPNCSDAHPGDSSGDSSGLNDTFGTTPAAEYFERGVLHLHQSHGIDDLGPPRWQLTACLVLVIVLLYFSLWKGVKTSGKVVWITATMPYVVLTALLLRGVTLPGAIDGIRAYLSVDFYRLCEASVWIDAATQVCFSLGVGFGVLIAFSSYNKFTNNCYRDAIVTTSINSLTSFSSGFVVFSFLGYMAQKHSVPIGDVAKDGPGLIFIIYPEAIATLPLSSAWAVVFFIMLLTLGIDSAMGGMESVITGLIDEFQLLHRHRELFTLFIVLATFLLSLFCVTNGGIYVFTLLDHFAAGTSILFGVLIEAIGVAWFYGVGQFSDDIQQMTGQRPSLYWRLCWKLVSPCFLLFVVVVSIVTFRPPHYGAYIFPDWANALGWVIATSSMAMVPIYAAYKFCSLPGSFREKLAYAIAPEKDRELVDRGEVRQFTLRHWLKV
Chain of CYP2D6 (P10635 whole entry): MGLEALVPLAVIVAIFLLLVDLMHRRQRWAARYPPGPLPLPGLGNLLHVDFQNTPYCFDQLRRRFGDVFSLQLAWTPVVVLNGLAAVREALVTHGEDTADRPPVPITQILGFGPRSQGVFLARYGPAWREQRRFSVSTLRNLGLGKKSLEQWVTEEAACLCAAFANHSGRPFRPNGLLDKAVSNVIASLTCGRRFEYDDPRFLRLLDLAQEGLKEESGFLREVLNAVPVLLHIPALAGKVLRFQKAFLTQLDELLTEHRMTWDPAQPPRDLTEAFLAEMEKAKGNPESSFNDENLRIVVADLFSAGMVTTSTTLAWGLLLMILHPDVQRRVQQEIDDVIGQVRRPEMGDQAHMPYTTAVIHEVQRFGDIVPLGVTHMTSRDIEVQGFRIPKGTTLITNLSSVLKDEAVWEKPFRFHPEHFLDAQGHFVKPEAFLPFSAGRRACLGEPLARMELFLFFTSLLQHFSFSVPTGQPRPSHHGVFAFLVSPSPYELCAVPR

By Ki is commonly meant a measure of affinity in units of concentration, obtained from inhibition or displacement. In general, IC50 refers to the midpoint of a concentration-inhibition curve. Usually pKa stands for the negative logarithm of the acid dissociation constant. Take `CNC[C@H](c1ccc2ccccc2c1)[C@H](O)c1cc(F)cc(F)c1` (racemic) [Compound 41]: the inhibition constant Ki was 10.6 nM in data set [1], 52.5 nM in data set [3] and 3.2 nM in data set [4]. In addition, the IC50 at CYP2D6 was found to be 130 nM; on CYP3A4, 19000 nM. In addition, the pKa in data set [2] (setting [5]) turned out to be 9.6.

For the compound `CN(C)C[C@H](c1ccc(Cl)c(Cl)c1)[C@H](O)c1ccccc1` (racemic) [Compound 105], the figures for the inhibitory constant (Ki) in data set [1], in data set [3] and in data set [4] were 18.1 nM, 138 nM and 64.6 nM, respectively. In addition, the IC50 was 2100 nM on CYP2D6 and at least 20000 nM at CYP3A4. Also, the pKa in data set [2] (setting [5]) amounted to 8.8.

For `CNC[C@H](c1ccc(-c2ccccc2)cc1)[C@H](O)c1ccccc1` (racemic) [Compound 113], the Ki was 1570 nM in data set [1], 5.2 nM in data set [3] and 167 nM in data set [4]. For the same compound, the IC50 at CYP2D6 turned out to be 220 nM; at CYP3A4 it was 16000 nM. The pKa in data set [2] (setting [5]) was determined as 9.8.

On to `CNC[C@H](c1ccc(Cl)c(Cl)c1)[C@H](O)c1ccncc1` (racemic) [Compound 155], for which the figures for the Ki in data set [1], in data set [3] and in data set [4] were 46.6 nM, 73.7 nM and 17.8 nM, respectively. Besides, the IC50 at CYP2D6 was 1400 nM; at CYP3A4, at least 20000 nM. The results for the pKa in data set [2] (setting [5]) and in data set [2] (setting [6]) were 9.3 and 5.3, respectively.

With `CNC[C@H](c1ccc2ccccc2c1)[C@H](O)c1ccc(Cl)s1` (single isomer, unassigned) [Compound 58], the inhibition constant (Ki) in data set [1] came to 127 nM; in data set [3], 5.9 nM; in data set [4], 5.1 nM. The results for the IC50 at CYP2D6 and at CYP3A4 were 120 nM and 9600 nM, respectively. Moreover, the pKa in data set [2] (setting [5]) is 9.7.

For `CNC[C@@H](c1ccc(Cl)c(Cl)c1)[C@@H](O)c1cccc(N(C)C)c1` (single isomer, unassigned) [Compound 108], the results for the Ki in data set [1], in data set [3] and in data set [4] were 57.1 nM, 754 nM and 88.5 nM, respectively. The results for the IC50 on CYP2D6 and on CYP3A4 were 2200 nM and at least 20000 nM, respectively. In addition, the pKa was 9.5 in data set [2] (setting [5]) and 4.9 in data set [2] (setting [6]).

As for `CNC[C@@H](c1ccc(Cl)c(Cl)c1)[C@@H](O)c1cccc([S+](C)[O-])c1` (single isomer, unassigned) [Compound 116], the Ki in data set [1] amounted to 39.7 nM; in data set [3], 1690 nM; in data set [4], 195 nM. Besides, the results for the IC50 at CYP2D6 and at CYP3A4 were 15000 nM and 20000 nM, respectively. In addition, the pKa in data set [2] (setting [5]) came out at 9.4.

As to `CNC[C@H](c1ccc(Cl)c(Cl)c1)[C@H](O)c1cccc(N(C)C)c1` (single isomer, unassigned) [Compound 168], the values for the Ki in data set [1], in data set [3] and in data set [4] were 144 nM, 178 nM and 89.3 nM, respectively. For the same compound, the IC50 at CYP2D6 worked out at 780 nM; on CYP3A4, 4600 nM. Also, the figures for the pKa in data set [2] (setting [5]) and in data set [2] (setting [6]) were 9.5 and 4.9, respectively.

As for `CN1CO[C@H](c2ccccc2)[C@@H](c2ccc3ccccc3c2)C1` [Compound 4], the Ki in data set [1] was found to be 10.9 nM; in data set [3], 2.5 nM; in data set [4] it was 1.4 nM. Besides, the IC50 amounted to 300 nM on CYP2D6 and 20000 nM on CYP3A4. Moreover, the pKa in data set [2] (setting [5]) was determined as 6.6.

As for `CNC[C@H](c1ccc2ccccc2c1)[C@H](O)c1ccncc1` [Compound 12], the Ki came out at 52.6 nM in data set [1], 2.7 nM in data set [3] and 1.6 nM in data set [4]. Further, the IC50 stood at 880 nM on CYP2D6 and 20000 nM on CYP3A4. The figures for the pKa in data set [2] (setting [5]) and in data set [2] (setting [6]) were 9.6 and 5.4, respectively.

As to `CNC[C@H](c1ccc(Cl)c(Cl)c1)[C@H](O)c1cccc(N)c1` [Compound 24], the values for the Ki in data set [1], in data set [3] and in data set [4] were 21.9 nM, 71.4 nM and 2.2 nM, respectively. Also, the half-inhibitory concentration (IC50) worked out at 1400 nM on CYP2D6 and 20000 nM on CYP3A4. Besides, the pKa in data set [2] (setting [5]) worked out at 9.4; in data set [2] (setting [6]), 4.3.

`CNC[C@H](c1ccc2ccccc2c1)[C@H](OCCO)c1ccccc1` [Compound 32]: the Ki stood at 15.8 nM in data set [1], 0.7 nM in data set [3] and 2.7 nM in data set [4]. For the same compound, the figures for the IC50 at CYP2D6 and on CYP3A4 were 560 nM and 20000 nM, respectively. Also, the pKa in data set [2] (setting [5]) turned out to be 9.6.

In the case of `CNC[C@H](c1ccc(OC)c(C)c1)[C@H](O)c1cccnc1` [Compound 55], the figures for the inhibition constant (Ki) in data set [1], in data set [3] and in data set [4] were 1630 nM, 1.8 nM and 4.6 nM, respectively. Further, the half-inhibitory concentration (IC50) at CYP2D6 is 810 nM; on CYP3A4, 20000 nM. Besides, in data set [2] (setting [5]), the pKa stood at 10.

Take `CNC[C@H](c1ccc(Cl)c(Cl)c1)[C@@H](O)c1cccc(N)c1` [Compound 63]: the Ki stood at 78.2 nM in data set [1], 853 nM in data set [3] and 6.7 nM in data set [4]. For the same compound, the IC50 was found to be 2800 nM at CYP2D6 and 8300 nM at CYP3A4. For the same compound, the pKa in data set [2] (setting [5]) was found to be 9.4; in data set [2] (setting [6]), 4.3.

With `CNCC(Cc1ccccc1)c1ccc2cccnc2c1` (centres unmarked) [Compound 75], the Ki amounted to 505 nM in data set [1], 2.1 nM in data set [3] and 10.4 nM in data set [4]. Further, the IC50 is 560 nM on CYP2D6 and 16000 nM on CYP3A4. The pKa in data set [2] (setting [5]) turned out to be 10; in data set [2] (setting [6]) it was 4.8.

For the compound `CNC[C@H](c1ccc(Cl)c(Cl)c1)[C@H](O)c1cccc(S(C)(=O)=O)c1` [Compound 101], the values for the Ki in data set [1], in data set [3] and in data set [4] were 73 nM, 2740 nM and 54.4 nM, respectively. Besides, the IC50 at CYP2D6 came to 3500 nM; at CYP3A4, 20000 nM. Further, the pKa in data set [2] (setting [5]) turned out to be 9.3.

As to `CNC[C@H](c1ccc(Cl)c(Cl)c1)[C@H](O)c1cccc([N+](=O)[O-])c1` [Compound 102], the values for the Ki in data set [1], in data set [3] and in data set [4] were 29.3 nM, 86.2 nM and 55.2 nM, respectively. The 50% inhibitory concentration (IC50) was determined as 120 nM at CYP2D6 and 5700 nM at CYP3A4. In addition, in data set [2] (setting [5]), the pKa was found to be 9.3.

As to `CNC[C@@H](c1ccc2ccccc2c1)[C@@H](O)c1cccnc1` [Compound 103], the Ki was found to be 91.9 nM in data set [1], 58.6 nM in data set [3] and 57.6 nM in data set [4]. Besides, the IC50 at CYP2D6 was determined as 11000 nM; on CYP3A4, 20000 nM. For the same compound, the “pKa (Base 1)” value in data set [2] (first base, e.g., an aliphatic primary, secondary, or tertiary amine) came out at 9.6. Moreover, in data set [2] (second base in the same molecule (if present)), the “pKa (Base 2)” value is reported as 5.1.

Regarding `CNC[C@H](c1ccc(Cl)c(Cl)c1)[C@@H](O)c1cccnc1OC` [Compound 104], the Ki in data set [1] was 94.6 nM; in data set [3], 656 nM; in data set [4] it was 60.6 nM. Also, the concentration for half-maximal inhibition (IC50) at CYP2D6 came to 66 nM; at CYP3A4 it was 270 nM. Further, the pKa turned out to be 9.2 in data set [2] (setting [5]) and 3.2 in data set [2] (setting [6]).

In the case of `CNC[C@@H](c1ccc(Cl)c(Cl)c1)[C@@H](O)c1ccsc1` [Compound 106], the Ki turned out to be 19.7 nM in data set [1], 742 nM in data set [3] and 80.6 nM in data set [4]. In addition, the IC50 on CYP2D6 was determined as 3900 nM; at CYP3A4 it was 20000 nM. In data set [2] (setting [5]), the pKa worked out at 9.5.

As for `NCC(c1ccc2ccccc2c1)C(O)c1ccc(F)cc1F` (centres unmarked) [Compound 107], the Ki in data set [1] came out at 126 nM; in data set [3], 727 nM; in data set [4], 82.2 nM. Also, the IC50 on CYP2D6 was 2400 nM; at CYP3A4, 19000 nM. In data set [2] (setting [5]), the pKa worked out at 8.5.

As to `CN1C[C@H](c2ccc3ccccc3c2)[C@@H](c2ccccc2)OCC1=O` [Compound 129], the Ki worked out at 43.5 nM in data set [1], 3370 nM in data set [3] and 3670 nM in data set [4]. Moreover, the IC50 at CYP2D6 and at CYP3A4 was 20000 nM throughout.
